The NIST ThermoML archive (doi:10.1021/acs.jced.8b00132)
Where “and” joins values, the source holds several entries; their conditions need not be identical. Identical values can stand only once.

O=C(C(F)(F)C(F)(F)F)C(F)(C(F)(F)F)C(F)(F)F [dodecafluoro-2-methylpentan-3-one]
Conditions	thermal conductivity
300.81 K, 35 kPa, Gas, hot wire	0.0117 W/m/K and 0.01167 W/m/K
300.82 K, 27 kPa, Gas, hot wire	0.01167 W/m/K
301.02 K, 35 kPa, Gas, hot wire	0.01175 W/m/K and 0.01169 W/m/K
301.02 K, 40 kPa, Gas, hot wire	0.01176 W/m/K and 0.01171 W/m/K
301.04 K, 26 kPa, Gas, hot wire	0.01169 W/m/K
301.04 K, 27 kPa, Gas, hot wire	0.01166 W/m/K
301.12 K, 68548 kPa, Liquid, transient hot wire	0.07848 W/m/K
301.12 K, 68619 kPa, Liquid, transient hot wire	0.07853 W/m/K
301.16 K, 59412 kPa, Liquid, transient hot wire	0.07633 W/m/K
301.16 K, 59421 kPa, Liquid, transient hot wire	0.07635 W/m/K
301.2 K, 15856 kPa, Liquid, transient hot wire	0.06469 W/m/K
301.2 K, 15861 kPa, Liquid, transient hot wire	0.06419 W/m/K
301.2 K, 48052 kPa, Liquid, transient hot wire	0.07348 W/m/K
301.21 K, 48059 kPa, Liquid, transient hot wire	0.07348 W/m/K
301.23 K, 38563 kPa, Liquid, transient hot wire	0.07045 W/m/K
301.23 K, 38570 kPa, Liquid, transient hot wire	0.07088 W/m/K
301.25 K, 35 kPa, Gas, hot wire	0.01177 W/m/K and 0.01172 W/m/K
301.25 K, 40 kPa, Gas, hot wire	0.01175 W/m/K and 0.01177 W/m/K
301.26 K, 29951 kPa, Liquid, transient hot wire	0.06831 W/m/K
301.26 K, 29959 kPa, Liquid, transient hot wire	0.06831 W/m/K
301.27 K, 26 kPa, Gas, hot wire	0.0117 W/m/K
301.27 K, 27 kPa, Gas, hot wire	0.01169 W/m/K
301.27 K, 22365 kPa, Liquid, transient hot wire	0.06588 W/m/K
301.27 K, 22366 kPa, Liquid, transient hot wire	0.06588 W/m/K
301.29 K, 68411 kPa, Liquid, transient hot wire	0.07844 W/m/K
301.3 K, 68477 kPa, Liquid, transient hot wire	0.07847 W/m/K
301.31 K, 15646 kPa, Liquid, transient hot wire	0.06353 W/m/K
301.32 K, 15647 kPa, Liquid, transient hot wire	0.06353 W/m/K
301.32 K, 15982 kPa, Liquid, transient hot wire	0.06426 W/m/K
301.32 K, 68614 kPa, Liquid, transient hot wire	0.07896 W/m/K
301.33 K, 15978 kPa, Liquid, transient hot wire	0.06437 W/m/K
301.33 K, 58469 kPa, Liquid, transient hot wire	0.07677 W/m/K
301.33 K, 68621 kPa, Liquid, transient hot wire	0.07913 W/m/K
301.34 K, 29983 kPa, Liquid, transient hot wire	0.06887 W/m/K
301.34 K, 38644 kPa, Liquid, transient hot wire	0.07116 W/m/K
301.34 K, 38645 kPa, Liquid, transient hot wire	0.07082 W/m/K
301.34 K, 48192 kPa, Liquid, transient hot wire	0.07381 W/m/K
301.34 K, 48193 kPa, Liquid, transient hot wire	0.07385 W/m/K
301.34 K, 58483 kPa, Liquid, transient hot wire	0.07689 W/m/K
301.35 K, 9734 kPa, Liquid, transient hot wire	0.06181 W/m/K
301.35 K, 9737 kPa, Liquid, transient hot wire	0.06163 W/m/K
301.35 K, 29988 kPa, Liquid, transient hot wire	0.06876 W/m/K
301.35 K, 59394 kPa, Liquid, transient hot wire	0.07632 W/m/K
301.35 K, 59405 kPa, Liquid, transient hot wire	0.07636 W/m/K
301.36 K, 186 kPa, Liquid, transient hot wire	0.05707 W/m/K
301.36 K, 22446 kPa, Liquid, transient hot wire	0.0654 W/m/K
301.37 K, 186 kPa, Liquid, transient hot wire	0.05699 W/m/K
301.37 K, 4437 kPa, Liquid, transient hot wire	0.05962 W/m/K
301.37 K, 4442 kPa, Liquid, transient hot wire	0.05915 W/m/K
301.37 K, 22450 kPa, Liquid, transient hot wire	0.06542 W/m/K
301.38 K, 9940 kPa, Liquid, transient hot wire	0.06178 W/m/K
301.39 K, 94 kPa, Liquid, transient hot wire	0.05683 W/m/K
301.39 K, 100 kPa, Liquid, transient hot wire	0.05659 W/m/K
301.39 K, 9943 kPa, Liquid, transient hot wire	0.06137 W/m/K
301.39 K, 68810 kPa, Liquid, transient hot wire	0.07913 W/m/K
301.39 K, 68825 kPa, Liquid, transient hot wire	0.07893 W/m/K
301.4 K, 48039 kPa, Liquid, transient hot wire	0.0735 W/m/K
301.4 K, 48041 kPa, Liquid, transient hot wire	0.07342 W/m/K
301.41 K, 182 kPa, Liquid, transient hot wire	0.057 W/m/K
301.42 K, 181 kPa, Liquid, transient hot wire	0.05699 W/m/K
301.43 K, 4512 kPa, Liquid, transient hot wire	0.0591 W/m/K
301.43 K, 4517 kPa, Liquid, transient hot wire	0.05911 W/m/K
301.43 K, 38558 kPa, Liquid, transient hot wire	0.0709 W/m/K
301.44 K, 38562 kPa, Liquid, transient hot wire	0.07087 W/m/K
301.46 K, 29951 kPa, Liquid, transient hot wire	0.06828 W/m/K
301.47 K, 29958 kPa, Liquid, transient hot wire	0.0683 W/m/K
301.48 K, 22365 kPa, Liquid, transient hot wire	0.06549 W/m/K
301.49 K, 22364 kPa, Liquid, transient hot wire	0.06585 W/m/K
301.49 K, 68338 kPa, Liquid, transient hot wire	0.07849 W/m/K
301.5 K, 35 kPa, Gas, hot wire	0.01174 W/m/K
301.5 K, 40 kPa, Gas, hot wire	0.01178 W/m/K
301.5 K, 41 kPa, Gas, hot wire	0.01177 W/m/K
301.5 K, 68274 kPa, Liquid, transient hot wire	0.07839 W/m/K
301.51 K, 35 kPa, Gas, hot wire	0.01178 W/m/K
301.52 K, 27 kPa, Gas, hot wire	0.01171 W/m/K
301.53 K, 27 kPa, Gas, hot wire	0.0117 W/m/K
301.54 K, 121 kPa, Liquid, transient hot wire	0.05731 W/m/K and 0.05707 W/m/K
301.54 K, 15641 kPa, Liquid, transient hot wire	0.06381 W/m/K
301.54 K, 15643 kPa, Liquid, transient hot wire	0.06352 W/m/K
301.54 K, 59383 kPa, Liquid, transient hot wire	0.07629 W/m/K
301.54 K, 59392 kPa, Liquid, transient hot wire	0.07615 W/m/K
301.56 K, 34 kPa, Gas, transient hot wire	0.01199 W/m/K
301.57 K, 34 kPa, Gas, transient hot wire	0.01211 W/m/K
301.59 K, 15866 kPa, Liquid, transient hot wire	0.06262 W/m/K
